Measured values published in ChEMBL document CHEMBL1147535, “Biaryl amide glucagon receptor antagonists” (Bioorg Med Chem Lett, 2004).

What was measured:
[1] = target: Adenylate cyclase; test: In vitro inhibitory activity against glucagon induced human adenylate cyclase; type: protein assay
[2] = target: Glucagon receptor (Homo sapiens, UniProt P47871); test: In vitro binding affinity against human glucagon receptor (h-GlucR) was determined
[3] = target: Adenylate cyclase; test: In vitro inhibitory activity against glucagon induced monkey adenylate cyclase; type: protein assay, Cercopithecidae
[4] = test system: Rattus norvegicus; test: Percent reduction of glucagon induced glucose excursion by the compound after an i.v. dose of 50 mg/kg to rats; type: functional; conditions: route intravenous
[5] = Oral bioavailability; type: ADME, organism-based; conditions: eutheria, in vivo

Chain of Glucagon receptor (P47871 whole entry): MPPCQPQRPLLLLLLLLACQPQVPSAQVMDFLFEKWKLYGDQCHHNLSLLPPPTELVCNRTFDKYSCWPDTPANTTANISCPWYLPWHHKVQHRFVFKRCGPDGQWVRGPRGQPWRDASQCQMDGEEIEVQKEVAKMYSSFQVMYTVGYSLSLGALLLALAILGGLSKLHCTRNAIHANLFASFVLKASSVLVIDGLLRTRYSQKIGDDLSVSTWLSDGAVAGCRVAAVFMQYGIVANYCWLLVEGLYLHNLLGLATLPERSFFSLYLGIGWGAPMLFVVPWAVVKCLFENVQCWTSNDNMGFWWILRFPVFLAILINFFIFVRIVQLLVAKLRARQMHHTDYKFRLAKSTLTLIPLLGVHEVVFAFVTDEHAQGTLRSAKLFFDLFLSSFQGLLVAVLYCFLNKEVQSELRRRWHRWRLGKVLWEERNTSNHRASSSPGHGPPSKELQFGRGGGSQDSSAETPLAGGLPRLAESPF

Structure (SMILES)	Ki [1]	Ki [2]	Ki [3]	bioavailability [5]	Reduction [4]
CC(C)(C)[C@H]1CC[C@H](N(Cc2ccc(C(=O)NCCC(=O)O)cc2)C(=O)Nc2ccc(OC(F)(F)F)cc2)CC1	254 nM	63 nM			
CC(C)(C)c1ccc(C(Cc2ccc(C(=O)NCCC(=O)O)cc2)C(=O)Nc2cnc3ccccc3c2)cc1 (stereo not given)	610 nM	11 nM			
CC(C)(C)c1ccc(C(Cc2ccc(C(=O)NCCC(=O)O)cc2)C(=O)Nc2ccc(N3CCCCC3)cc2)cc1 (stereo not given)	> 2000 nM	73 nM			
CCc1cccc(NC(=O)C(Cc2ccc(C(=O)NCCC(=O)O)cc2)c2ccc(C(C)(C)C)cc2)c1 (stereo not given)	> 2000 nM	80 nM			
CC(C)(C)c1ccc(C(Cc2ccc(C(=O)NCCC(=O)O)cc2)C(=O)Nc2ccc(-c3cc4ccccc4o3)cc2)cc1 (stereo not given)	29 nM	4 nM	69 nM	< 5%	50%
CC(C)(C)c1ccc(C(Oc2ccc(C(=O)NCC(F)C(=O)O)cc2)C(=O)Nc2ccc(-c3ccccc3)cc2)cc1 (stereo not given)	> 2000 nM	26 nM			
Cc1ccc(N2CCN(C(=O)C(Cc3ccc(C(=O)NCCC(=O)O)cc3)c3ccc(C(C)(C)C)cc3)CC2)cc1 (stereo not given)	> 2000 nM	400 nM			
CC(C)(C)c1ccc(C(Cc2ccc(C(=O)NCCC(=O)O)cc2)C(=O)Nc2ccc(COC(F)(F)F)cc2)cc1 (stereo not given)	> 2000 nM	5000 nM			
CC(C)(C)c1ccc(C(Cc2ccc(C(=O)NCCC(=O)O)cc2)C(=O)Nc2ccc(CO)cc2)cc1 (stereo not given)	1000 nM	29 nM			
CC(C)(C)c1ccc(C(Cc2ccc(C(=O)NCCC(=O)O)cc2)C(=O)Nc2ccc(-n3cccn3)cc2)cc1 (stereo not given)	> 2000 nM	70 nM			
CCN1CCN(C(=O)C(Cc2ccc(C(=O)NCCC(=O)O)cc2)c2ccc(C(C)(C)C)cc2)CC1 (stereo not given)	> 2000 nM	> 5000 nM			
CC(C)(C)c1ccc(C(Cc2ccc(C(=O)NCCC(=O)O)cc2)C(=O)Nc2ccc(OC(F)(F)F)cc2)cc1 (stereo not given)	110 nM	51 nM			
CCc1ccc(NC(=O)C(Cc2ccc(C(=O)NCCC(=O)O)cc2)c2ccc(C(C)(C)C)cc2)cc1 (stereo not given)	> 2000 nM	26 nM			
CCCCCCC(Cc1ccc(C(=O)NCCC(=O)O)cc1)C(=O)Nc1ccc(-c2cc3ccccc3o2)cc1 (stereo not given)	20 nM	6 nM			

Further lines, with some results ahead:

Ki [1]	Ki [2]	Ki [3]	bioavailability [5]	Structure (SMILES)	Reduction [4]
14 nM	6 nM			CCCCCCC(Oc1ccc(C(=O)NCCC(=O)O)cc1)C(=O)Nc1ccc(-c2ccc(Cl)cc2Cl)cc1 (stereo not given)	
317 nM	66 nM			CC(C)(C)c1ccc(C(Oc2ccc(C(=O)Nc3nn[nH]n3)cc2)C(=O)Nc2ccc(-c3ccccc3)cc2)cc1 (stereo not given)	
144 nM	9 nM			CC(C)(C)c1ccc(C(Oc2ccc(C(=O)NCCC(=O)O)cc2)C(=O)Nc2ccc(-c3ccccc3)cc2)cc1 (stereo not given)	
300 nM	11 nM			CC(C)(C)c1ccc(C(Cc2ccc(C(=O)NCCC(=O)O)cc2)C(=O)Nc2ccc(-c3ccccc3)cc2)cc1 (stereo not given)	
33 nM	6 nM			CC(C)(C)c1ccc(C(Cc2ccc(C(=O)NCCC(=O)O)cc2)C(=O)Nc2ccc(-c3ccc(Cl)cc3Cl)cc2)cc1 (stereo not given)	
17 nM	3 nM			CCCCCCC(Oc1ccc(C(=O)NCCC(=O)O)cc1)C(=O)Nc1ccc(-c2cc3ccccc3o2)cc1 (stereo not given)	
> 2000 nM	112 nM			CC(C)(C)c1ccc(C(Oc2ccc(C(=O)NCC(O)C(=O)O)cc2)C(=O)Nc2ccc(-c3ccccc3)cc2)cc1 (stereo not given)	
